Active and inactive are the calls of the source. The rule behind the calls is not given here.
Assays:
[1] = molecular target: T1, Rap guanine nucleotide exchange factor 4 (Homo sapiens, UniProt Q8WZA2); assay: Inhibition of 8-NBD-cAMP binding to EPAC2 (unknown origin) by microplate reader analysis
[2] = molecular target: T1, Rap guanine nucleotide exchange factor 4; assay: Inhibition of EPAC2 (unknown origin) assessed as reduction in cAMP-mediated guanine nucleotide exchange factor activity in presence of C-terminal truncated Rap1B (1 to 167 residues)-BODIPY-GDP by microplate reader analysis; conditions: for inhibition: concentration not given here
[3] = molecular target: T2, Rap guanine nucleotide exchange factor 3 (Homo sapiens) (UniProt O95398); assay: Inhibition of EPAC1 (unknown origin) assessed as reduction in cAMP-mediated guanine nucleotide exchange factor activity up to 100 uM in presence of C-terminal truncated Rap1B (1 to 167 residues)-BODIPY-GDP by microplate reader analysis
T2 sequence (whole entry): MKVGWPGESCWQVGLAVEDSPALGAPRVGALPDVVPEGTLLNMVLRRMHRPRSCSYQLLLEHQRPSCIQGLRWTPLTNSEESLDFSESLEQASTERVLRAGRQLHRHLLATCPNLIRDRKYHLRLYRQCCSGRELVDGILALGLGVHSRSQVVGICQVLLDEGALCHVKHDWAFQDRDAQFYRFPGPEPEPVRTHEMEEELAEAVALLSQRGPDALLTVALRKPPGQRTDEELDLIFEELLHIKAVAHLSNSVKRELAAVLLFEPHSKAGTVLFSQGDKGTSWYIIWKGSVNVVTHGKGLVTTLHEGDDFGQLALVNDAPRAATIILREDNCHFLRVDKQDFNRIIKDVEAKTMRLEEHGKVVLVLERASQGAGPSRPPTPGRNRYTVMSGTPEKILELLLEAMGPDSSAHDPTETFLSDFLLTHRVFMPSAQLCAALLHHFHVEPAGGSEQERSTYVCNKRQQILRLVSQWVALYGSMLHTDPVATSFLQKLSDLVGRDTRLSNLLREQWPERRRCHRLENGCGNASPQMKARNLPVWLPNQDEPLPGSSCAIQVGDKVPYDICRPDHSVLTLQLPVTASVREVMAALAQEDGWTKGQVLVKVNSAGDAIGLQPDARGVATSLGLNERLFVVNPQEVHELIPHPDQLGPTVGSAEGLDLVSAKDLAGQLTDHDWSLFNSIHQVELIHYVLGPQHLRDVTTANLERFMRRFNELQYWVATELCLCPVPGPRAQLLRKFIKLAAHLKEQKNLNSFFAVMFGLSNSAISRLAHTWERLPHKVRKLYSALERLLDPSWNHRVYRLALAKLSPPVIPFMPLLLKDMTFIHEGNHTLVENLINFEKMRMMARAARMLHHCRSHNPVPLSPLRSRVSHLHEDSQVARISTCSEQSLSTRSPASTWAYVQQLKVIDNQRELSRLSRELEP

[4] = molecular target: T1, Rap guanine nucleotide exchange factor 4; assay: Non-competitive inhibition of EPAC2 (unknown origin) assessed as reduction in cAMP-mediated guanine nucleotide exchange factor activity at 1 uM in presence of C-terminal truncated Rap1B (1 to 167 residues)-BODIPY-GDP
Target sequence in this assay (Q8WZA2 whole entry, looked up, the tested form may be a part): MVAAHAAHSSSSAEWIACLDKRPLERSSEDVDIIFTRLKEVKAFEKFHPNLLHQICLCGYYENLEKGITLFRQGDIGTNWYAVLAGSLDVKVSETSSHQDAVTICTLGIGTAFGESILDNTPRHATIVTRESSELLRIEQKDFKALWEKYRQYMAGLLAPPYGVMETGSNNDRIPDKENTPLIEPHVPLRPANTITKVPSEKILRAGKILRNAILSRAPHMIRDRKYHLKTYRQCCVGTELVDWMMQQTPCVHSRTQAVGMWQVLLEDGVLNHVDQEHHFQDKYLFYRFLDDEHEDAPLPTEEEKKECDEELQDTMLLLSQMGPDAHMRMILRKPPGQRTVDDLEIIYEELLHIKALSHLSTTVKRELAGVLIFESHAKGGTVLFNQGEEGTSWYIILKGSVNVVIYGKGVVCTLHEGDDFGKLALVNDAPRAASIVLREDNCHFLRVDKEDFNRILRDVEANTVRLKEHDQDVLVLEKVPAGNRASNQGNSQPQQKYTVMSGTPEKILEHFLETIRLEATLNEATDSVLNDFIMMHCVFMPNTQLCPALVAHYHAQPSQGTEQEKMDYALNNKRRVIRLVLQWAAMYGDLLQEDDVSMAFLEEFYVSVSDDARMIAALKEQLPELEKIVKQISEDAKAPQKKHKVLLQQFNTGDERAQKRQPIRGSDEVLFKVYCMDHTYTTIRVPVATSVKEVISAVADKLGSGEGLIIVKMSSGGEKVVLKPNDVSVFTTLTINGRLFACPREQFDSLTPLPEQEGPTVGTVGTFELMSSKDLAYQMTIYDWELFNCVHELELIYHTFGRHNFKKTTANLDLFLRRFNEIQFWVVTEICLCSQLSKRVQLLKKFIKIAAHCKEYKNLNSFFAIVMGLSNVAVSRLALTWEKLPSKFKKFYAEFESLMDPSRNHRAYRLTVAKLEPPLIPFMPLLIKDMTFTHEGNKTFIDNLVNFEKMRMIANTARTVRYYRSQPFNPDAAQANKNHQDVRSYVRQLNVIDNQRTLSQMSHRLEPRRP

Structure (SMILES)	IC50 [1] [nM]	other results
Cc1cc(C)c(Nc2cc(Cl)cc(C(F)(F)F)c2)c(C)c1	500	
Cc1cc(C)c(Nc2ccc(Cl)c(F)c2)c(C)c1	3300	
Cc1cc(C)c(Nc2cccc(N)c2)c(C)c1	34000	
Cc1cc(C)c(Nc2cccc(Br)c2)c(C)c1	1500	
Cc1cc(C)cc(Nc2c(C)cc(C)cc2C)c1	1700	
Cc1cc(C)c(Nc2c(C)cc(Cl)cc2Cl)c(C)c1	700	
Cc1cc(C)c(Nc2cc(F)c(F)c(F)c2)c(C)c1	3000	
Cc1cc(C)c(Nc2ccc(F)c(F)c2)c(C)c1	8700	
Cc1cc(C)c(Nc2cccc(F)c2)c(C)c1	5800	
Cc1cc(C)c(Nc2ccc(C)c(Cl)c2)c(C)c1	1800	
Cc1cc(C)c(Nc2cc(C)ccc2C)c(C)c1	1800	
Cc1cc(C)c(Nc2cccc(Cl)c2C)c(C)c1	500	IC50 [2]: 3600 nM; inhibition [2]: > 80%; inhibition [3]: inactive; inhibition [1]: Dose-dependent effect; inhibition ([1]; concentration not given here): 80%
Cc1cc(C)c(Nc2cc(F)cc(Cl)c2)c(C)c1	2900	
Cc1cc(C)c(Nc2cc(Cl)ccc2C)c(C)c1	1400	
Cc1cc(C)c(Nc2ccc(Cl)c(C(F)(F)F)c2)c(C)c1	400	inhibition [4]: Active; IC50 [2]: 1000 nM; inhibition [2]: > 80%; inhibition [3]: inactive; inhibition [1]: Dose-dependent effect; inhibition ([1]; concentration not given here): 80%
Cc1cc(C)c(Nc2cc(C(F)(F)F)cc(C(F)(F)F)c2)c(C)c1	600	IC50 [2]: 1300 nM; inhibition [2]: > 80%; inhibition [3]: inactive; inhibition [1]: Dose-dependent effect; inhibition ([1]; concentration not given here): 60%

Structure (SMILES)	IC50 [1] [nM]	other results
Cc1cc(C)c(Nc2cc(Cl)c(Cl)c(Cl)c2)c(C)c1	1100	
Cc1cc(C)c(Nc2ccc(F)c(Cl)c2)c(C)c1	2900	
Cc1cc(C)c(Nc2cccc(C)c2C)c(C)c1	1000	
Cc1cc(C)c(Nc2ccc3c(c2)CCC3)c(C)c1	1800	
Cc1cc(C)c(Nc2c(F)cc(F)cc2F)c(C)c1	2700	
Cc1cc(C)c(Nc2cc(F)cc(F)c2)c(C)c1	5700	
Cc1cc(C)c(Nc2cccc(C(F)(F)F)c2)c(C)c1	2000	
Cc1cc(C)c(Nc2cccc(O)c2)c(C)c1	46000	
Cc1cc(C)c(C#Cc2cccc(Nc3c(C)cc(C)cc3C)c2)c(C)c1	> 300000	
Cc1cc(C)c(Nc2ccc(Br)cc2)c(C)c1	1600	
CC(C)(C)c1cc(C(=O)/C(C#N)=N/Nc2cccc(Cl)c2)no1		inhibition [2]: > 80%
CCc1cccc(Nc2c(C)cc(C)cc2C)c1	1800	
Cc1cc(C)c(Nc2c(C)cc(C)cc2C)c(C)c1	400	IC50 [2]: 1700 nM; inhibition [2]: > 80%; inhibition [3]: inactive; inhibition [1]: Dose-dependent effect; inhibition ([1]; concentration not given here): 80%
COc1cccc(Nc2c(C)cc(C)cc2C)c1	10700	
Cc1ccc(Nc2c(C)cc(C)cc2C)c(C)c1	2200	
Cc1cc(C)c(Nc2ccc(Cl)c(Cl)c2)c(C)c1	1100	
